In US4778912A, “Phospholipid derivatives” (priority 1985, dated 1988):
≈ marks a conversion by molar mass, not a printed value. Entries after “also recorded” stand apart in the source; their conditions may differ. Where two headings read alike, the source gives them in different places.

Assays:
mouse = settings: iv administration; cited from earlier work
platelet [1] = settings: cited from earlier work; for platelet activating / platelet aggregation action (in words): background
[2] = background, cited from earlier work
Sarcoma 180 cells = assay: Antitumor action in ICR mice inoculated intraperitoneally with Sarcoma 180 cells (life-span prolongation, 60-day survivors); type: in vivo; settings: for responders at 0.33 mg: read-out: 60th day: No. of survived mice/No. of tested mice (converted); for response vs control in vivo at 0.33 mg: read-out: Life-span prolongation ratio (T/C %)
Description: The assay was carried out under the same conditions as Test Example 1-i.

MM46 cells = assay: Antitumor action in C3H/He mice inoculated intraperitoneally with MM46 cells (life-span prolongation, 60-day survivors); type: in vivo; settings: for responders at 0.25 mg: 1440 h, read-out: 60th day: No. of survived mice/No. of tested mice (converted); for response vs control in vivo at 0.25 mg: read-out: Life-span prolongation ratio (T/C %)
Description: (i) C3H/He mice (a group consisting of five mice) were inoculated intraperitoneally with 1×10^4 MM46 cells per mouse, and each mouse was intraperitoneally given 0.25 mg of drug for consecutive 4 days, starting from the second day after the inoculation.
(ii) In the above test, each mouse was inoculated intraperitoneally with 1×10^5 MM46 cells and 0.25 mg of drug was given intraperitoneally to each mouse for consecutive 4 days, starting from the second day after the inoculation.
The assay was carried out under the same conditions as Test Example 2-i.

platelet [3] = assay: Effect on platelet: platelet aggregation (PAF activity) in platelet rich plasma; type: cell-based, male rabbit; settings: Oryctolagus cuniculus, Table 5, rabbit PRP, 400,000 cells/1 μl, read-out: PAF activity EC50 (drug concentration causing 50% platelet aggregation)
Description: This PRP was further centrifuged at 3,000 r.p.m. for 15 minutes to obtain platelet poor plasma (PPP). By using this PPP, the PRP was diluted and so adjusted as to have a constant platelet concentration (400,000 cells/1 μl). […] Platelet aggregation was measured by using a platelet aggregometer (manufactured by Rika Denki Co. in Japan).

tumor = settings: background; cited from earlier work
[4] = test system: human myelogenous leukemia cells HL-60; assay: Multiplication-inhibiting effect against human myelogenous leukemia cells HL-60; type: cell-based; settings: Table 4, read-out: Multiplication inhibition against HL-60 (IC50)
Description: Shown in Table 4 is the multiplication-inhibiting effect (IC50) of the compound of the present invention against human myelogenous leukemia cells HL-60. The assay was conducted according to the method of R. Gallo et al.: Blood, Vol 54, 713 (1979).

[5] = test system: PAF-induced platelet aggregation; assay: Inhibition action against PAF in platelet aggregation (Washed PRP); type: cell-based, male rabbit; settings: Oryctolagus cuniculus
Description: Blood was collected from a male rabbit, using a syringe containing 3.15% of citric acid (at a ratio of 1 part to 9 parts of blood) as an anticoagulant and centrifuged at 1,000 r.p.m. at room temperature for 10 minutes to obtain platelet rich plasma (PRP). This PRP was further centrifuged at 1,400 r.p.m. for 15 minutes to obtain platelet pellet, which was then suspended in Ca^++ -free Tyrode (containing 0.25% of gelatin) to prepare Washed PRP. 250 μl of the Washed PRP was stirred at 37° C. for 2 minutes, and admixed with 25 μl of 0.2-0.5 mM Ca^++ solution, followed by stirring for another 30 seconds. Then, a test compound was added to the mixture to a concentration of 3×10^-5 M and after further stirring for 2 minutes, 3×10^-7 M of PAF was added to the mixture. Platelet aggregation was measured by using a platelet aggregometer (manufactured by Rika Denki Co. in Japan). The activity of the test compound was determined from an inhibition ratio for maximum transmission (i.e. maximum aggregation ratio) by PAF in the control PRP.
Inhibition activity against PAF in platelet aggregation was assayed under the same conditions as Test Example 5.

[6] = Sarcoma-180, 1440 h, Table 1, 0.33 mg/mouse ip, three times
[7] = Table 1, 1×10^5 Sarcoma 180 cells ip, 0.33 mg/mouse ip, three times (1 hour, 1 day, 2 days after inoculation), only mice surviving less than 60 days
[8] = Table 2, 1×10^4 MM46 cells, 0.25 mg/mouse ip, 4 days
[9] = Mus musculus, ip, Table 2, 1×10^4 MM46 cells ip, 0.25 mg/mouse ip for consecutive 4 days from second day, only mice surviving less than 60 days
[10] = Table 6, test compound 3×10^-5 M, PAF 3×10^-7 M, read-out: Inhibition ratio
[11] = Mus musculus, Sarcoma-180, ip, 1440 h, Table 7, same conditions as Test Example 1-i
[12] = Mus musculus, Sarcoma-180, ip, Table 7, same conditions as Test Example 1-i
[13] = Mus musculus, ip, Table 8, same conditions as Test Example 2-i
[14] = Table 10, same conditions as Test Example 5, read-out: Inhibition ratio

CCCCCCCCCCCCCCCCCCOCC(COP(=O)([O-])OCC[N+](C)(C)C)OC(C)=O (stereo not drawn) [Compound (II)]
fatal dose for a mouse (mouse): about 50 mg/kg
platelet activating / platelet aggregation action (in words) (platelet [1]): strong platelet aggregation action
side effects and toxicity (in words) ([2]; listed as PAF): neutrophil-activating, tissue-impairing, vessel-permeability enhancing, blood-pressure lowering, heart function inhibiting, bronchoconstrictor and other actions; also recorded: toxicity for warm-blooded animals is very high

CCCCCCCCCCCCCCCCCCOCC(COP(=O)([O-])OCC[N+](C)(C)C)OC (stereo not drawn) [Compound (III), reference compound]
life-span prolongation ratio compared with the control group (in words) (Sarcoma 180 cells; 1 mg/mouse, for its toxicity): smaller life-span prolongation ratio than the control group
responders at 0.33 mg (Sarcoma 180 cells; [6]): 0%
response vs control in vivo at 0.33 mg (Sarcoma 180 cells; [7]): 162%
responders at 0.25 mg (MM46 cells; [8]): 0%
response vs control in vivo at 0.25 mg (MM46 cells; [9]): 155%
EC50 (platelet [3]): 30 µM
platelet activating / platelet aggregation action (in words) (platelet [1]): possess a platelet activating action
antitumor action (in words) (tumor): exhibit an antitumor action
side effects and toxicity (in words) [2]: both blood-pressure lowering and topically irritating actions are observed; also recorded: high degree of its toxicity

CCCCCCCCCCCCCCCCCCOCC(COP(=O)([O-])OCC[N+](C)(C)C)OC(=O)CCC (stereo not drawn) [Compound (IV), reference compound]
responders at 0.33 mg (Sarcoma 180 cells; [6]): 0%
response vs control in vivo at 0.33 mg (Sarcoma 180 cells; [7]): 109%
platelet activating action relative to that of PAF (II) (platelet [1]; Thrombosis Research, 30, 143 (1983)): about 1/10

CCCCCCCCCCCCCCCCCCOCC(COP(=O)([O-])OCC[N+](C)(C)C)OC(=O)N(C)C (stereo not drawn) [Compound (V)]
platelet activating / platelet aggregation action (in words) (platelet [1]): remarkably strong platelet activating activity

CCCCCCCCCCCCCCCCCCOCC(COP(=O)([O-])OCCCCCCCCCC[N+](C)(C)C)OC(=O)CC(C)=O (stereo not drawn) [Example 3, 2-(Acetoacetyloxy)-3-(octadecyloxy)propyl 10-trimethylammoniodecyl phosphate]
life-span prolongation ratio (T/C %) (Sarcoma 180 cells; 1 mg/mouse, otherwise as Test Example 1-i): 369%
number of survived mice on the 60th day (Sarcoma 180 cells; 1 mg/mouse, group of 5 mice): 2 mice
responders at 0.33 mg (Sarcoma 180 cells; [6]): 40%
response vs control in vivo at 0.33 mg (Sarcoma 180 cells; [7]): 326%
responders at 0.25 mg (MM46 cells; [8]): 80%
response vs control in vivo at 0.25 mg (MM46 cells; [9]): 132%
response vs control in vivo at 0.25 mg (MM46 cells; Mus musculus, ip, Table 3, 1×10^5 MM46 cells ip, 0.25 mg/mouse ip for consecutive 4 days, only mice surviving less than 60 days): 125%
60th day: No. of survived mice/No. of treated mice (MM46 cells; Table 3, 1×10^5 MM46 cells, 0.25 mg/mouse ip, 4 days): 4/5
IC50 [4]: 1.5 µg/mL
inhibition at 30 µM [5, 10]: 72%

CCCCCCCCCCCCCCCCCCC(=O)COCC(COP(=O)([O-])OCCCCCCCCCC[N+](C)(C)C)OC (stereo not drawn) [Example 6, 2-Methoxy-3-(2-oxoeicocyloxy)propyl 10-trimethylammoniodecyl phosphate]
responders at 0.33 mg (Sarcoma 180 cells; [11]): 0%
response vs control in vivo at 0.33 mg (Sarcoma 180 cells; [12]): 242%
responders at 0.25 mg (MM46 cells; [13]): 80%
response vs control in vivo at 0.25 mg (MM46 cells; [13]): 145%

CCCCCCCCCCCCCCCCCCOCC(COP(=O)([O-])OCCCCCCCCCC[N+](C)(C)C)OC(=O)NC (stereo not drawn) [Example 8, 2-Methylcarbamoyloxy-3-octadecyloxypropyl 10-trimethylammoniodecyl phosphate]
inhibition at 30 µM [5, 14]: 100%

CCCCCCCCCCCCCCCCCCOCC(COP(=O)([O-])OCCCCCCCCCC[N+](C)(C)C)OC(=S)NC (stereo not drawn) [Example 9, 2-Methylthiocarbamoyloxy-3-octadecyloxypropyl 10-trimethylammoniodecyl phosphate]
responders at 0.25 mg (MM46 cells; [13]): 40%
response vs control in vivo at 0.25 mg (MM46 cells; [13]): 170%
inhibition at 30 µM [5, 14]: 55%

CCCCCCCCCCCCCCCCCCOCC(COP(=O)([O-])OCCCCCCCCCC[N+](C)(C)C)OC (stereo not drawn) [Example 10, 2-Methoxy-3-octadecyloxypropyl 10-trimethylammoniodecyl phosphate]
responders at 0.33 mg (Sarcoma 180 cells; [11]): 0%
response vs control in vivo at 0.33 mg (Sarcoma 180 cells; [12]): 212%
responders at 0.25 mg (MM46 cells; [13]): 40%
response vs control in vivo at 0.25 mg (MM46 cells; [13]): 249%
inhibition at 30 µM [5, 14]: 53%

CCCCCCCCCCCCCCCCCCNC(=O)OCC(COP(=O)([O-])OCCCCCCCCCC[N+](C)(C)C)OC (stereo not drawn) [Example 11, 3-Octadecylcarbamoyloxy-2-methoxypropyl 10-trimethylammoniodecyl phosphate]
responders at 0.33 mg (Sarcoma 180 cells; [11]): 0%
response vs control in vivo at 0.33 mg (Sarcoma 180 cells; [12]): 253%
responders at 0.25 mg (MM46 cells; [13]): 40%
response vs control in vivo at 0.25 mg (MM46 cells; [13]): 186%

CCCCCCCCCCCCCCCCCCOCC(COP(=O)([O-])OCCCCCCCCCC[N+](C)(C)C)OCC(C)=O (stereo not drawn) [Example 18, 3-(Octadecyloxy)-2-(2-oxopropyloxy)propyl 10-trimethylammoniodecyl phosphate]
EC50 (platelet [3]): > 100 µM
inhibition at 30 µM [5, 10]: 100%

CCCCCCCCCCCCCCCCCCOCC(COP(=O)([O-])OCCCCCCCC[N+](C)(C)C)OC(=O)CC(C)=O (stereo not drawn) [Example 29, 2-(Acetoacetoxy)-3-(octadecyloxy)propyl 8-trimethylammoniooctyl phosphate]
inhibition at 30 µM [5, 14]: 96%

COC(COCCCCCCCCCCCCC1CCCCC1)COP(=O)([O-])OCCCCCCCCCC[N+](C)(C)C (stereo not drawn) [Example 33, 3-(12-Cyclohexyldodecyloxy)-2-methoxypropyl 10-trimethylammoniodecyl phosphate]
responders at 0.33 mg (Sarcoma 180 cells; [11]): 0%
response vs control in vivo at 0.33 mg (Sarcoma 180 cells; [12]): 266%
inhibition at 30 µM [5, 14]: 100%

COC(COCCCCCCCCCCCCCCC(C)C)COP(=O)([O-])OCCCCCCCCCC[N+](C)(C)C (stereo not drawn) [Example 39, 2-Methoxy-3-(15-methylhexadecyloxy)propyl 10-trimethylammoniodecyl phosphate]
responders at 0.33 mg (Sarcoma 180 cells; [11]): 0%
response vs control in vivo at 0.33 mg (Sarcoma 180 cells; [12]): 265%
inhibition at 30 µM [5, 14]: 69%

CC(=O)CC(=O)OC(COCCCCCCCCCCCCCCC(C)C)COP(=O)([O-])OCCCCCCCCCC[N+](C)(C)C (stereo not drawn) [Example 43, 2-(Acetoacetyloxy)-3-(15-methylhexadecyloxy)propyl 10-trimethylammoniodecylphosphate]
responders at 0.33 mg (Sarcoma 180 cells; [11]): 40%
response vs control in vivo at 0.33 mg (Sarcoma 180 cells; [12]): 128%
responders at 0.25 mg (MM46 cells; [13]): 0%
response vs control in vivo at 0.25 mg (MM46 cells; [13]): 232%
inhibition at 30 µM [5, 14]: 100%

CCCCCCCCCCCCCCCCCCOCC(COP(=O)([O-])OCCCCCCCC[N+](C)(C)C)OC(=O)NC (stereo not drawn) [Example 44, 2-Methylcarbamoyloxy-3-octadecyloxypropyl 8-trimethylammoniooctyl phosphate]
inhibition at 30 µM [5, 14]: 100%

CCCCCCCCCCCCCCCCCCOCC(COP(=O)([O-])OCCCCCCCCCC[N+](C)(C)C)OCC(=O)O (stereo not drawn) [Example 46, 2-(Carboxymethyloxy)-3-(octadecyloxy)propyl 10-trimethylammoniodecyl phosphate]
responders at 0.33 mg (Sarcoma 180 cells; [11]): 0%
response vs control in vivo at 0.33 mg (Sarcoma 180 cells; [12]): 335%
responders at 0.25 mg (MM46 cells; [13]): 20%
response vs control in vivo at 0.25 mg (MM46 cells; [13]): 287%

CCCCCCCCCCCCCCCCCCOCC(COP(=O)([O-])OCC[N+](C)(C)C)OC(=O)CC(C)=O (stereo not drawn) [Reference compound 1, reference compound]
IC50 [4]: 6.6 µg/mL (≈ 11.1 µM)
inhibition at 30 µM [5, 10]: 0%

CCCCCCCCCCCCCCCCCCOCC(COP(=O)([O-])OCCC[N+](C)(C)C)OC(=O)CC(C)=O (stereo not drawn) [Reference compound 2, reference compound]
IC50 [4]: 11 µg/mL (≈ 18.1 µM)
inhibition at 30 µM [5, 10]: 0%

CCCCCCCCCCCCCCCCCCNC(=O)OCC(COP(=O)([O-])OCC[N+](C)(C)C)OC (stereo not drawn) [VI, reference compound]
responders at 0.33 mg (Sarcoma 180 cells; [6]): 0%
response vs control in vivo at 0.33 mg (Sarcoma 180 cells; [7]): 202%
antitumor action (in words) (tumor): not sufficient
